From US8889906B2, “Tetralin and indane derivatives and uses thereof” (Roche Palo Alto LLC, priority 2004, dated 2014)
Counter-ions that a name gives are not always drawn.

What was measured:
[1] = target: T1, recombinant human 5-HT2A receptor (Homo sapiens, UniProt P28223); assay: 5-HT2A radioligand binding ([3H]Ketanserin competition); settings: [3H]Ketanserin displacement, membranes of CHO-K1 cells expressing recombinant human 5-HT2A receptor, 32° C.; read-out: pKi for 5-HT2A (converted)
T1 construct: expressed in transfected cells
T1 sequence (P28223 whole entry): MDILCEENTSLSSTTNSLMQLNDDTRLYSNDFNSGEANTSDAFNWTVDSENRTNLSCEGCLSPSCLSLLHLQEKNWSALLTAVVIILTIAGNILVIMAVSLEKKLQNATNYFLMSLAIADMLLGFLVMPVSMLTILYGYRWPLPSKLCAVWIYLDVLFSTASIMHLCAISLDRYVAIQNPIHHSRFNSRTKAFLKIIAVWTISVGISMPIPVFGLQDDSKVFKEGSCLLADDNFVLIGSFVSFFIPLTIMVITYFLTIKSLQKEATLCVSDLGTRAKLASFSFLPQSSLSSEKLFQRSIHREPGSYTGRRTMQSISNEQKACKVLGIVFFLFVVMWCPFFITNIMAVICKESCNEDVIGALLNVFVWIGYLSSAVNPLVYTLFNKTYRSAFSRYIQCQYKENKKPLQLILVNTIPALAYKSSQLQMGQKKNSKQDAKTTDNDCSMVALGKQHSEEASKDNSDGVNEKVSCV
Protocol: (§1) The binding activity of compounds of this invention in vitro was determined as follows. Duplicate determinations of 5-HT6 ligand affinity were made by competing for binding of [^3H]LSD in cell membranes derived from HEK293 cells stably expressing recombinant human 5-HT6 receptor. Duplicate determinations of 5-HT2A ligand affinity were made by competing for binding of [^3H]Ketanserin (3-(2-(4-(4-fluorobenzoyl)piperidinol)ethyl)-2,4(1H,3H)-quinazolinedione) in cell membranes derived from CHO-K1 cells stably expressing recombinant human 5-HT2A receptor. Membranes were prepared from HEK 293 cell lines by the method described by Monsma et al., Molecular Pharmacology, Vol. 43 pp. 320-327 (1993), and from CHO-K1 cell lines as described by Bonhaus et al., Br J Pharmacol. June; 115(4):622-8 (1995).
(§2) For estimation of affinity at the 5-HT6 receptor, all determinations were made in assay buffer containing 50 mM Tris-HCl, 10 mM MgSO4, 0.5 mM EDTA, 1 mM ascorbic acid, pH 7.4 at 37° C., in a 250 microliter reaction volume. […]
(§3) Assay tubes containing [^3H] […] Ketanserin were determined as radioactive counts per minute using Packard TopCount.
(§4) Displacement of [^3H]LSD or [^3H]Ketanserin from the binding sites was quantified by fitting concentration-binding data to a 4-parameter logistic equation: […]

[2] = target: T2, recombinant human 5-HT6 receptor (Homo sapiens, UniProt P50406); assay: 5-HT6 radioligand binding ([3H]LSD competition); settings: [3H]LSD displacement, membranes of HEK293 cells expressing recombinant human 5-HT6 receptor, 37° C.; read-out: pKi for 5-HT6 (converted)
T2 construct: expressed in transfected cells
T2 sequence (P50406 whole entry): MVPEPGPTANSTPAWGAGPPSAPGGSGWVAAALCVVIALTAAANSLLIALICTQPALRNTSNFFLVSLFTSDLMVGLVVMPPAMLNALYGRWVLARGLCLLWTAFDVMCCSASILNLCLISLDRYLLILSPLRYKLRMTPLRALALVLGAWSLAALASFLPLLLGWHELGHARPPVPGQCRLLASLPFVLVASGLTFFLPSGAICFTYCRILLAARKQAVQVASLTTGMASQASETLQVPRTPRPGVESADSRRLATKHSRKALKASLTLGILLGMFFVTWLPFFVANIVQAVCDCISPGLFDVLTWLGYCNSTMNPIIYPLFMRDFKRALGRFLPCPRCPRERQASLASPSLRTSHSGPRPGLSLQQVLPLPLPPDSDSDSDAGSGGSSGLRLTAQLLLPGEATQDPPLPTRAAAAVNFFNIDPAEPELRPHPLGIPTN
Protocol: as §1, §2, §3, §4

Row | melting point [°C] | SMILES | further results
1 | 140 to 145 | CC1(C)CN=C(NCC2CCCc3ccc(S(=O)(=O)c4ccccc4)cc32)NC1 (stereo not drawn) [Compound 11, (7-Benzenesulfonyl-1,2,3,4-tetrahydro-naphthalen-1-ylmethyl)-(5,5-dimethyl-1,4,5,6-tetrahydro-pyrimidin-2-yl)-amine] | –
2 | – | CC(=N)NCC1CCCc2cc(S(=O)(=O)c3ccccc3)ccc21 (stereo not drawn) [N-(6-Benzenesulfonyl-1,2,3,4-tetrahydro-naphthalen-1-ylmethyl)-acetamidine] | Ki [1]: ~0.282 nM
3 | 212 to 213 | N#Cc1cccc(S(=O)(=O)c2ccc3c(c2)CCC[C@H]3CN)c1 (as salt: oxalate) [Compound 52, (R)-3-(5-Aminomethyl-5,6,7,8-tetrahydro-naphthalene-2-sulfonyl)-benzonitrile] | –
4 | 265 to 266 | CNC[C@@H]1CCCc2cc(S(=O)(=O)c3cccc(OC)c3)ccc21 (as salt: HCl) [Compound 50, (R)-[6-(3-Methoxy-benzenesulfonyl)-1,2,3,4-tetrahydro-naphthalen-1-ylmethyl]-methyl-amine] | –
5 | – | N=C(N)CCC1CCCc2cc(S(=O)(=O)c3ccccc3)ccc21 (stereo not drawn) [3-(6-Benzenesulfonyl-1,2,3,4-tetrahydro-naphthalen-1-yl)-propionamidine] | Ki [2]: ~0.141 nM
6 | 146 to 147 | CNC[C@H]1CCCc2cc(S(=O)(=O)c3ccccc3)ccc21 (as salt: TFA) [Compound 40, (S)-(6-Benzenesulfonyl-1,2,3,4-tetrahydro-naphthalen-1-ylmethyl)-methyl-amine] | –
